One data set relates to C57 mice. The data set can be described thus: Forced swim test of oral administration in mice (antidepressant activity). The class given is in vivo. Particulars: for inhibition in vivo at 20 mg/kg: Mus musculus, po. The protocol:
To investigate the effects of different compounds on depression-like behavior in C57 mice by single oral administration of 20 mg/kg for 1 h and 24 h followed by forced swimming experiment, respectively.
The experimental animals were 6-week-old C57 mice, male, C57 breed mice purchased from Shanghai Slaughter Laboratory Animal Co. Ltd, weighing 20.45±0.19 g. The animals arrived at the Animal Breeding Center of the Shanghai Institute of Pharmaceutical Sciences, Chinese Academy of Sciences (Animal Production License: SCXK9[Shanghai]2004-0002, Use License: SYXK [Shanghai]2003-0029) before the experiments and were acclimated to the animal facilities for more than 3 days, 6 animals/cage were feed. The feeding environment was room temperature 23±0.2° C. and 12/12 h day/night alternating light and dark. Prior to behavioral testing, animals were moved to the behavioral testing room 2 hours in advance to acclimatize them to the environment and reduce their nervousness.
Preparation of the test material: the test compounds were weighed and dissolved in 0.9% NaCl solution, mixed well, and prepared into 1 mg/ml and 2 mg/ml solution for use, respectively.
24 h prior to drug administration, mice were placed in a cylindrical tank to acclimatize to the water environment for 10 min. On the day of the behavioral test, the animals were administered the drug once, by gavage/intraperitoneal injection at 1 h and 24 h prior to the behavioral test, respectively (as shown in Table 1).
The antidepressant effect of the compounds was evaluated by their ability to cause a reduction in the immobility time of the animals in the forced swim test compared to the blank group.

Data set [1] in a line: Solid-state chemical stability under different storage conditions (liquid chromatography). Format: physicochemical. The note with it: for Stability of solid state compound, 0 Days (%): liquid chromatography. The protocol: The HPLC conditions were as follows:
Configuration of test solution: appropriate amount of sample was dissolved and diluted with a diluent (0.03 mol/L phosphate buffer-acetonitrile (80:20)) to make 1 mg/mL solution.
Chromatographic conditions: according to the high performance liquid chromatography (Chinese Pharmacopoeia 2020 version of the four general 0512) test, using octadecyl-bonded silica gel (Agilent Eclipse Plus C18, 4.6 mm*250 mm, 5.0 μm, P/N for 959990-902 or a chromatographic column with equivalent performance) as a filler; 0.03 mol/L phosphate buffer (4.08 g of potassium dihydrogen phosphate was dissolved in 1000 ml of water and shaken well) was used as mobile phase A and acetonitrile as mobile phase B at a flow rate of 1 ml/min, the column temperature was 30° C., the detection wavelength was 220 nm, the injection volume was 10 ul, and the sample plate was controlled to 8° C. and running for 65 min. Gradient elution was performed according to the following table: […]
Configuration of test solution: appropriate amount of the product was dissolved and diluted with a diluent (0.1% phosphoric acid-acetonitrile (80:20)) to make 1 mg/mL solution.
Chromatographic conditions: according to the high performance liquid chromatography (Chinese Pharmacopoeia 2020 version of the four general 0512) test, using octadecyl bonded silica gel (Agilent Eclipse Plus C18, 4.6 mm*250 mm, 5.0 μm, P/N 959990-902 or a chromatographic column with equivalent performance) as a filler; 0.1% phosphate buffer (1 ml of phosphoric acid in 1000 ml of water and shake well) as mobile phase A, acetonitrile as mobile phase B, flow rate of 1 ml/min, column temperature of 30° C., detection wavelength of 220 nm, injection volume of 10 ul, running for 48 minutes. Gradient elution was performed according to the following table: […]

Data set [2] can be described thus: Brain tissue distribution study in rats. The class given is in vivo. The note with it: SD rats, 10 mg/kg gavage. As for the experimental part: Healthy male SD rats, randomly grouped with 3 rats in each group, were given the test compounds by gavage.
Each test compound was dissolved in saline to form a certain concentration solution for administration.
Fasting but not abstaining from water for 12-14 hours on the day before administration, and food was given 4 h after administration.
Brain tissues were collected after the animals were bled, cleaned, and homogenized with 50% ice methanol 1:4 (m/v). The collection time points were 5 min, 10 min, 30 min, and 2 h after the administration of subjects; 30.0 μL of tissue samples were taken (the samples were taken from the refrigerator at −80° C. and vortexed for 30 s after natural dissolution at room temperature) into 1.5 mL centrifugal tubes, and 300.0 μL of the internal standard solution (30 ng/mL buspirone in acetonitrile) was added; the samples were vortexed for 60 s, and centrifuged for 3 min (the centrifugal force was 12,000 rpm). 75 μL of the supernatant was transferred to a 96-well plate containing an equal volume of water, shaken to mix well and then sampled for LC-MS/MS analysis, the sample volume is 10 μL.

The mark [3] stands for this setting: reduction of immobility time vs blank group, single gavage 20 mg/kg, test 1 h after dosing, read-out: 1 h inhibition (%).
The mark [4] stands for this setting: reduction of immobility time vs blank group, single gavage 20 mg/kg, test 24 h after dosing, read-out: 24 h inhibition (%).

Structures can show the parent of a compound that is named as a salt. Where two headings read alike, the source gives them in different places.

With `N[C@@]1(c2ccccc2Cl)CCC[C@@H](O)C1=O` [(2R,6R)-HNK, reference compound], the “1 h inhibition (%)” value with C57 mice (reduction of immobility time vs blank group, single gavage 20 mg/kg, test 1 h after dosing) stood at 21.1 ± 1.4%. Moreover, the “24 h inhibition (%)” value in the data set with C57 mice (reduction of immobility time vs blank group, single gavage 20 mg/kg, test 24 h after dosing) worked out at 24.8 ± 6.9%. Besides, in data set [1] (40° C., 75% RH), the “Stability of solid state compound, 0 Days (%)” value amounted to 99.18%; the “Stability of solid state compound, 5 Days (%)” value (shortened to “Stability … 5 Days (%)”) stood at 98.54%; the “Stability of solid state compound, 10 Days (%)” value (from here on “Stability … 10 Days (%)”) is reported as 97.85%. In addition, the brain/plasma ratio in data set [2] came out at 0.95. Further, in data set [2] (brain), the AUC0-t brain was found to be 2480 ng·h/g and the Cmax brain was found to be 1495 ng/g. In data set [2] (plasma), this molecule yielded an AUC0-t plasma of 2610 ng·h/mL and a Cmax plasma of 1480 ng/mL.
Consider `N[C@@]1(c2ccccc2Cl)CC2(CC2)C[C@@H](O)C1=O` [Comparative compound 5, reference compound], for which the inhibition in vivo at 20 mg/kg was 22.8 ± 2.5% with C57 mice (setting [3]) and 19.1 ± 2.1% with C57 mice (setting [4]).
As for `CC1(C)CC[C@@](N)(c2ccccc2Cl)C(=O)[C@@H]1O` [Comparative compound 4, reference compound], the inhibition in vivo at 20 mg/kg in the data set on C57 mice (setting [3]) is 2.9 ± 1%; with C57 mice (setting [4]), -17.2 ± 2%.
Take `CN[C@@]1(c2ccc(C(F)(F)F)cc2)CCC[C@@](C)(O)C1=O.Cl` [Compound 71, (2R,6R)-2-hydroxy-2-methyl-6-methylamino-6-(4-(trifluoromethyl)phenyl)cyclohexan-1-one hydrochloride]: in the data set with C57 mice (setting [3]), the inhibition in vivo at 20 mg/kg came to 42.4 ± 0.4%. Moreover, the inhibition in vivo at 20 mg/kg in the data set on C57 mice (setting [4]) was 40.2 ± 1.6%. In data set [1] (40° C., 75% RH), the “Stability of solid state compound, 0 Days (%)” value is 99.67%; the “Stability … 5 Days (%)” value came to 99.46%; the “Stability … 10 Days (%)” value turned out to be 99.46%; the “Stability of solid state compound, 30 Days (%)” value (from here on “Stability … 30 Days (%)”) was 99.45%.
Turning to `C[C@@]1(O)CCC[C@@](N)(c2ccc(C(F)(F)F)cc2)C1=O.Cl` [Compound 52, (2R, 6R)-2-amino-6-hydroxy-6-methyl-2-(4-(trifluoromethyl)phenyl)cyclohexan-1-one hydrochloride], the inhibition in vivo at 20 mg/kg in the data set with C57 mice (setting [3]) was found to be 29.5 ± 1.1%. Moreover, the inhibition in vivo at 20 mg/kg with C57 mice (setting [4]) came out at 25.6 ± 2.1%. Moreover, in data set [1] (40° C., 75% RH), the “Stability of solid state compound, 0 Days (%)” value was 99.89%; the “Stability … 10 Days (%)” value was determined as 99.89%; the “Stability … 30 Days (%)” value is 99.90%; the “Stability of solid state compound, 60 Days (%)” value (from here on “Stability … 60 Days (%)”) is listed as 99.88%. Moreover, the “Stability of solid state compound, 180 Days (%)” value in data set [1] (40° C., 75% RH, 180 days) came to 99.82%.
Turning to `Cl.N[C@@]1(c2ccc(C(F)(F)F)cc2)CCC[C@@H](O)C1=O` [Comparative compound 1, reference compound], the inhibition in vivo at 20 mg/kg in the data set on C57 mice (setting [3]) came out at 30.6 ± 3.1%. In addition, the inhibition in vivo at 20 mg/kg in the data set with C57 mice (setting [4]) amounted to 35 ± 0.3%. In addition, in data set [1] (40° C., 75% RH), the “Stability of solid state compound, 0 Days (%)” value worked out at 99.98%; the “Stability … 5 Days (%)” value is on record as 98.94%; the “Stability … 10 Days (%)” value is reported as 98.74%; the “Stability … 30 Days (%)” value is recorded as 95.88%. Moreover, the “Stability … 60 Days (%)” value in data set [1] (40° C., 75% RH) is on record as 91.57%.
As to `C[C@]1(O)CCC[C@@](N)(c2ccc(C(F)(F)F)cc2)C1=O.Cl` [Compound 54, (2R, 6S)-2-amino-6-hydroxy-6-methyl-2-(4-(trifluoromethyl)phenyl)cyclohexan-1-one hydrochloride], in the data set on C57 mice (setting [3]), the inhibition in vivo at 20 mg/kg amounted to 33 ± 2.5%. The inhibition in vivo at 20 mg/kg with C57 mice (setting [4]) amounted to 38.7 ± 3.3%. Also, in data set [1] (40° C., 75% RH), the “Stability of solid state compound, 0 Days (%)” value is 99.27%; the “Stability … 10 Days (%)” value turned out to be 99.23%; the “Stability … 60 Days (%)” value was determined as 99.20%.
With `CN[C@@]1(c2cccc(OC(F)(F)F)c2F)CCC[C@](C)(O)C1=O` [Compound 57, (2R,6S)-2-(2-fluoro-3-(trifluoromethoxy)phenyl)-6-hydroxy-6-methyl-2-(methylamino)cyclohexan-1-one hydrochloride], the inhibition in vivo at 20 mg/kg in the data set with C57 mice (setting [3]) worked out at 42.2 ± 1.8%; in the data set on C57 mice (setting [4]), 36.5 ± 3%.
Regarding `CN[C@@]1(c2cccc(OC(F)(F)F)c2)CCC[C@](C)(O)C1=O.Cl` [Compound 68, (2S,6R)-2-hydroxy-2-methyl-6-methylamino-6-(3-(trifluoromethoxy)phenyl)cyclohexan-1-one hydrochloride], the inhibition in vivo at 20 mg/kg with C57 mice (setting [3]) was found to be 26.2 ± 4.1%. The inhibition in vivo at 20 mg/kg in the data set on C57 mice (setting [4]) is 37.4 ± 0.7%. In data set [1] (40° C., 75% RH), the “Stability of solid state compound, 0 Days (%)” value worked out at 99.12%; the “Stability … 5 Days (%)” value was determined as 99.11%; the “Stability … 10 Days (%)” value is on record as 99.12%.
Consider `CNCCC(Oc1ccc(C(F)(F)F)cc1)c1ccccc1` (stereo not drawn) [Fluoxetine, reference compound], for which the inhibition in vivo at 20 mg/kg is 2.4 ± 1.1% with C57 mice (setting [3]) and 2.3 ± 3.1% in the data set with C57 mice (setting [4]). The “antidepressant effect in the forced swim test (in words)” value with C57 mice (oral administration, 1 h and 24 h) was “did not show antidepressant effect”.
With `CCN[C@@]1(c2ccc(C(F)(F)F)cc2)CCC[C@](C)(O)C1=O.Cl` [Compound 77, (2R,6S)-2-ethylamino-6-hydroxy-6-methyl-2-(4-(trifluoromethyl)phenyl)cyclohexan-1-one hydrochloride], the inhibition in vivo at 20 mg/kg in the data set on C57 mice (setting [3]) turned out to be 69.8 ± 1.6%. For the same molecule, the inhibition in vivo at 20 mg/kg with C57 mice (setting [4]) stood at 44.3 ± 3.5%. Besides, in data set [1] (25° C., 60% RH), the “Stability of solid state compound, 0 Days (%)” value stood at 99.70%; the “Stability … 10 Days (%)” value is given as 99.69%; the “Stability … 30 Days (%)” value is on record as 99.70%.
As to `C[C@@H]1CC[C@@](N)(c2ccccc2Cl)C(=O)[C@@H]1O` [Comparative compound 3, reference compound], the inhibition in vivo at 20 mg/kg was 22.6 ± 2.7% in the data set on C57 mice (setting [3]) and 23.7 ± 3.2% with C57 mice (setting [4]).
In the case of `CNC1(c2cccc(F)c2F)CCCC(C)(O)C1=O.Cl` (stereo not drawn) [Compound 65, 2-(2,3-difluorophenyl)-6-hydroxy-6-methyl-2-methylaminocyclohexan-1-one hydrochloride], the inhibition in vivo at 20 mg/kg in the data set with C57 mice (setting [3]) worked out at 26.4 ± 1.1%. Moreover, the inhibition in vivo at 20 mg/kg in the data set on C57 mice (setting [4]) is 37.9 ± 2.3%. Moreover, in data set [1] (40° C., 75% RH), the “Stability of solid state compound, 0 Days (%)” value is 99.54%; the “Stability … 5 Days (%)” value is on record as 99.37%; the “Stability … 10 Days (%)” value is reported as 99.32%; the “Stability … 30 Days (%)” value came out at 99.22%.
With `Cl.[2H]C([2H])([2H])N[C@@]1(c2ccc(C(F)(F)F)cc2)CCC[C@](C)(O)C1=O` [Compound 76, (2S,6R)-2-hydroxy-2-methyl-6-trideutero-methylamino-6-(4-(trifluoromethyl)phenyl)cyclohexan-1-one hydrochloride], the inhibition in vivo at 20 mg/kg in the data set on C57 mice (setting [3]) is 65.2 ± 0.8%. In addition, the inhibition in vivo at 20 mg/kg with C57 mice (setting [4]) was found to be 47.1 ± 3.2%. In addition, in data set [1] (40° C., 75% RH), the “Stability of solid state compound, 0 Days (%)” value was determined as 99.88%; the “Stability … 10 Days (%)” value is on record as 99.65%; the “Stability … 30 Days (%)” value is listed as 99.84%.
On to `CC1(C)C[C@@H](O)C(=O)[C@](N)(c2ccccc2Cl)C1` [Comparative compound 6, reference compound], for which the figures for the inhibition in vivo at 20 mg/kg in the data set with C57 mice (setting [3]) and with C57 mice (setting [4]) were 18.2 ± 1.6% and 11.3 ± 2%, respectively.

Values taken from US20250177324A1, “A[…], AND PREPARATION METHOD THEREFOR AND USE THEREOF” (SHANGHAI ZHIGEN PHARMACEUTICAL & TECHNOLOGY CO. LTD., priority 2022, published 2025).
